Measured values taken from ChEMBL document CHEMBL5390281.
Active and inactive are the calls of the source. The calls are words filed in the database; no cut-off is given here.

Columns and labels:
Type in all cases: functional, organism-based
[1] = test system: Mus musculus; experiment: Antinociceptive activity in Swiss mouse assessed as reduction in pain like behavior of mouse in first phase at 5 mg/kg, ip pretreated for 40 min followed by formalin challenge and measured after 30 min; details: time 70.0 min
[2] = test system: Mus musculus; experiment: Antinociceptive activity in Swiss mouse assessed as reduction in pain like behavior of mouse in second phase at 5 mg/kg, ip pretreated for 40 min followed by formalin challenge and measured after 30 min; details: time 70.0 min
[3] = test system: Mus musculus; experiment: Antinociceptive activity against thermal stimulated-induced persistent inflammation model of Swiss mouse assessed as increased tail flick latency at 5 mg/kg, ip pretreated with compound for 40 mins followed by thermal induction and measured after 2 hrs by tail flick test; details: time 160.0 min
[4] = test system: Mus musculus; experiment: Antinociceptive activity against thermal stimulated-induced persistent inflammation model of Swiss mouse assessed as increased tail flick latency at 5 mg/kg, ip pretreated with compound for 40 min followed thermal stimulation and measured after 3 days in the presence of naloxone by tail flick test; details: time 4360.0 min
[5] = test system: Mus musculus; experiment: (§1) Antinociceptive activity against noxious cold stimulated-induced persistent inflammation model of Swiss mouse assessed as reduction in pain like behavior at 5 mg/kg, ip pretreated with compound for 40 min followed by noxious cold stimulation and measured after 2 hrs by cold plate test; details: time 160.0 min
[6] = test system: Mus musculus; experiment: as §1, with “stimulated-persistent” for “stimulated-induced persistent”, “3 days in the presence of naloxone” for “2 hrs”; details: time 4360.0 min
[7] = test system: Mus musculus; experiment: Antinociceptive activity against CFA-induced persistent inflammation model of Swiss mouse assessed as prevention in CFA-induced allodynia at 2 mg/kg, ip incubated for 40 mins by von frey test
[8] = test system: Mus musculus; experiment: Antiinflammatory activity against CFA-induced persistent inflammation model of Swiss mouse assessed as prevention in paw edema formation at 2 mg/kg, ip incubated for 40 mins by plethysmometer analysis

SMILES	Activity [1]	Activity [2]	Activity [3]	Activity [4]	Activity [5]	Activity [6]	Activity [7]	Activity [8]
COc1ccc2c(c1)c(CC(=O)O)c(C)n2C(=O)c1ccc(Cl)cc1	inactive	Active	–	–	–	–	–	–
CN1CC[C@]23c4c5ccc(O)c4O[C@H]2[C@@H](O)C=C[C@H]3[C@H]1C5	Active	Active	Active	inactive	Active	inactive	–	–
C[C@@H]1C[C@H]2[C@@H]3CCC4=CC(=O)C=C[C@]4(C)[C@@]3(F)[C@@H](O)C[C@]2(C)[C@@]1(O)C(=O)CO	–	–	–	–	–	–	Active	Active
